Laboratory results as given in the NIST ThermoML archive (doi:10.1016/j.jct.2016.04.003).

Test: refractive index (Na D-line) (dimensionless); xn = mol fraction of the nth substance listed
Settings: 99 kPa, Liquid, Standard Abbe refractometry

CCCC[n+]1ccccc1.F[B-](F)(F)F [1-butylpyridinium tetrafluoroborate] + O
refractive index
Settings | 293.15 K | 303.15 K | 313.15 K | 323.15 K
x1 = 0.0165 | 1.34819 | 1.34644 | 1.34468 | 1.34263
x1 = 0.0379 | 1.36348 | 1.3612 | 1.35896 | 1.35635
x1 = 0.0863 | 1.38639 | 1.38392 | 1.38128 | 1.37835
x1 = 0.101 | 1.39141 | 1.38881 | 1.38613 | 1.38331
x1 = 0.134 | 1.40063 | 1.39805 | 1.39527 | 1.3926
x1 = 0.243 | 1.41888 | 1.41639 | 1.41376 | 1.41106
x1 = 0.289 | 1.42371 | 1.42115 | 1.41853 | 1.41585
x1 = 0.3456 | 1.42826 | 1.42571 | 1.42304 | 1.42041
x1 = 0.4217 | 1.43287 | 1.4303 | 1.42763 | 1.42496
x1 = 0.5485 | 1.43815 | 1.43558 | 1.43295 | 1.43025
x1 = 0.6029 | 1.43987 | 1.43726 | 1.43463 | 1.43194
x1 = 0.7232 | 1.44283 | 1.44021 | 1.43755 | 1.43489
x1 = 0.8005 | 1.44431 | 1.44168 | 1.43905 | 1.43637
x1 = 0.8575 | 1.44526 | 1.44261 | 1.43999 | 1.43731
x1 = 0.9315 | 1.44633 | 1.44368 | 1.44105 | 1.43838
x1 = 1 | 1.44719 | 1.44454 | 1.44191 | 1.43923

CCC[n+]1ccccc1.F[B-](F)(F)F [1-propylpyridinium tetrafluoroborate] + O
refractive index
Settings | 293.15 K | 303.15 K | 313.15 K | 323.15 K
x1 = 0.0185 | 1.34795 | 1.34613 | 1.34407 | 1.34187
x1 = 0.0287 | 1.3549 | 1.35282 | 1.35055 | 1.34817
x1 = 0.0466 | 1.36529 | 1.36297 | 1.36049 | 1.35792
x1 = 0.0766 | 1.37888 | 1.37637 | 1.37374 | 1.37105
x1 = 0.0964 | 1.38592 | 1.38337 | 1.38071 | 1.37801
x1 = 0.2011 | 1.40941 | 1.40683 | 1.40419 | 1.40152
x1 = 0.2858 | 1.41984 | 1.41727 | 1.41465 | 1.41202
x1 = 0.3993 | 1.42862 | 1.42604 | 1.42343 | 1.42083
x1 = 0.4979 | 1.4337 | 1.4311 | 1.42848 | 1.42588
x1 = 0.5772 | 1.43677 | 1.43415 | 1.43152 | 1.42891
x1 = 0.6015 | 1.43757 | 1.43495 | 1.43233 | 1.42971
x1 = 0.6695 | 1.43957 | 1.43694 | 1.4343 | 1.43169
x1 = 0.7309 | 1.44111 | 1.43847 | 1.43583 | 1.43321
x1 = 0.7771 | 1.44212 | 1.43948 | 1.43685 | 1.43422
x1 = 0.8395 | 1.44335 | 1.4407 | 1.43806 | 1.43543
x1 = 0.9054 | 1.44449 | 1.44183 | 1.43918 | 1.43656
x1 = 0.9633 | 1.44537 | 1.44271 | 1.44006 | 1.43742
x1 = 1 | 1.44588 | 1.44322 | 1.44057 | 1.43793
